Results from patent US12139492B2 (Endotarget Inc., priority 2021, dated 2024).
Where two headings read alike, the source gives them in different places.

Columns and labels:
Mino cells = experiment: Antiproliferative effect, MTS cell viability assay, Mino cells; format: cell-based; conditions: Mino mantle cell lymphoma cells, read-out: IC50 (anti-proliferation) Mino cells
Outline: (§1)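 Tested at six concentrations (0 to 10 μM in tenfold steps), 72 h; viability by MTS, A490.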

JeKo-1 cells = experiment: Antiproliferative effect, MTS cell viability assay, JeKo-1 cells; format: cell-based; conditions: JeKo-1 mantle cell lymphoma cells, read-out: IC50 (anti-proliferation) JeKO-1 cells
Outline: as §1

BTK = BTK (Homo sapiens, UniProt Q06187); experiment: Degradation of BTK protein in Namalwa cells (Western blot; DC50, Dmax)
Sequence of BTK (Q06187 whole entry): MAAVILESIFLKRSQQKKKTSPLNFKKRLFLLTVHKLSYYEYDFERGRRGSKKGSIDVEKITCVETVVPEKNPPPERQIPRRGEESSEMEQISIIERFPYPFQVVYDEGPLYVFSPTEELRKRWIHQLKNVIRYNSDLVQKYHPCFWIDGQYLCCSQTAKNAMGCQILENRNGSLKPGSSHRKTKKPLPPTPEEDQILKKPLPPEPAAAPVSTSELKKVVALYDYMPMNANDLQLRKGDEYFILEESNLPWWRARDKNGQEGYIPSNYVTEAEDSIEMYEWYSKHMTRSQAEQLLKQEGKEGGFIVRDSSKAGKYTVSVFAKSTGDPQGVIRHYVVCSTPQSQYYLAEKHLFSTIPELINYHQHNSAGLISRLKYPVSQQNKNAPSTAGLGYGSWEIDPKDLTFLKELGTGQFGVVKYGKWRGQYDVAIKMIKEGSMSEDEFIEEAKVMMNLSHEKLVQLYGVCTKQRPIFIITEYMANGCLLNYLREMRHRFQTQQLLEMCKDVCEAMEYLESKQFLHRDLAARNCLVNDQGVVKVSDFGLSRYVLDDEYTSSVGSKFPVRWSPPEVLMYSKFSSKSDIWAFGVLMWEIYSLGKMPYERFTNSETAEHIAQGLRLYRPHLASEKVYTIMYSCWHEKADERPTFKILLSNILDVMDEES

[1] = read-out: DC50 (BTK degradation), concentration giving 50% reduction of BTK expression level, cell line not given
[2] = read-out: Dmax (BTK degradation)
[3] = BTK degradation, cell line not given

| DC50 (BTK; [1]) [nM] | Dmax (BTK; [2]) [%] | Dmax (BTK) [%] | DC50 (BTK; [3]) [nM] | degradation of BTK protein (BTK; Namalwa B lymphocyte cells, various concentrations, 24 hours, Western blot) | Dmax (BTK degradation) (BTK; cell line not given) | Compound | IC50 (Mino cells; Homo sapiens, MINO) [nM] | IC50 (JeKo-1 cells; Homo sapiens) [nM] | IC50 (Mino cells) [nM] | IC50 (JeKo-1 cells) [nM] |
| --- | --- | --- | --- | --- | --- | --- | --- | --- | --- | --- |
| 10 to 50 | > 90 |  |  |  |  | NC(=O)c1c(-c2ccc(Oc3ccccc3)cc2)nn2c1NCC[C@H]2C1CCN(CC2CCN(C(=O)N3CCN(CC4CCN(c5ccc6c(c5)CN(C5CCC(=O)NC5=O)C6=O)CC4)CC3)CC2)CC1 (stereo partly drawn) [Compound 412, (7S)-7-(1-((1-(4-((1-(2-(2,6-dioxopiperidin-3-yl)-1-oxoisoindolin-5-yl)piperidin-4-yl)methyl)piperazine-1-carbonyl)piperidin-4-yl)methyl)piperidin-4-yl)-2-(4-phenoxyphenyl)-4,5,6,7-tetrahydropyrazolo[1,5-a]pyrimidine-3-carboxamide] | 1000 to 10000 | < 1000 |  |  |
| 10 to 50 | > 75 |  |  |  |  | NC(=O)c1c(-c2ccc(Oc3ccccc3)cc2)nn2c1NCC[C@H]2C1CCN(CC2CCN(C(=O)N3CCC(CN4CCC(c5ccc6c(c5)C(=O)N(C5CCC(=O)NC5=O)C6=O)CC4)CC3)CC2)CC1 (stereo partly drawn) [Compound 415, (7S)-7-(1-((1-(4-((4-(2-(2,6-dioxopiperidin-3-yl)-1,3-dioxoisoindolin-5-yl)piperidin-1-yl)methyl)piperidine-1-carbonyl)piperidin-4-yl)methyl)piperidin-4-yl)-2-(4-phenoxyphenyl)-4,5,6,7-tetrahydropyrazolo[1,5-a]pyrimidine-3-carboxamide] | < 1000 | 1000 to 10000 |  |  |
| < 10 | > 90 |  |  |  |  | Nc1ncnc2c1c(-c1ccc(Oc3ccccc3)cc1)nn2C1CCN(CC2CCN(CC3CCN(c4ccc(NC5CCC(=O)NC5=O)cc4)CC3)CC2)CC1 (stereo not drawn) [Compound 557, 3-((4-(4-((4-((4-(4-amino-3-(4-phenoxyphenyl)-1H-pyrazolo[3,4-d]pyrimidin-1-yl)piperidin-1-yl)methyl)piperidin-1-yl)methyl)piperidin-1-yl)phenyl)amino)piperidine-2,6-dione] | < 1000 | < 1000 |  |  |
|  |  | > 90 | 10 to 50 |  |  | NC(=O)c1c(-c2ccc(Oc3ccccc3)cc2)nn2c1NCC[C@H]2C1CCN(C(=O)N2CCC(CN3CCN(c4ccc5c(c4)C(=O)N(C4CCC(=O)NC4=O)C5=O)CC3)CC2)CC1 (stereo partly drawn) [Compound 291, (7S)-7-(1-(4-((4-(2-(2,6-dioxopiperidin-3-yl)-1,3-dioxoisoindolin-5-yl)piperazin-1-yl)methyl)piperidine-1-carbonyl)piperidin-4-yl)-2-(4-phenoxyphenyl)-4,5,6,7-tetrahydropyrazolo[1,5-a]pyrimidine-3-carboxamide] | < 1000 | < 1000 |  |  |
| 10 to 50 | > 90 |  |  |  |  | NC(=O)c1c(-c2ccc(Oc3ccccc3)cc2)nn2c1NCC[C@H]2C1CCN(CC2CCN(C(=O)N3CCN(C4CCN(c5ccc6c(c5)C(=O)N(C5CCC(=O)NC5=O)C6=O)CC4)CC3)CC2)CC1 (stereo partly drawn) [Compound 401] | 1000 to 10000 | 1000 to 10000 |  |  |
| > 50 | > 90 |  |  | dose-dependent degradation |  | Nc1ncnc2c1c(-c1ccc(Oc3ccccc3)cc1)nn2C1CCN(CC2CCN(CC3CCN(CC4CN(c5ccc6c(c5)C(=O)N(C5CCC(=O)NC5=O)C6=O)C4)CC3)CC2)CC1 (stereo not drawn) [Compound 431, 5-(3-((4-((4-((4-(4-amino-3-(4-phenoxyphenyl)-1H-pyrazolo(3,4-d)pyrimidin-1-yl)piperidin-1-yl)methyl)piperidin-1-yl)methyl)piperidin-1-yl)methyl)azetidin-1-yl)-2-(2,6-dioxopiperidin-3-yl)isoindoline-1,3-dione] | < 1000 | < 1000 |  |  |
| 10 to 50 | > 90 |  |  |  |  | Nc1ncnc2c1c(-c1ccc(Oc3ccccc3)cc1)nn2C1CCN(C[C@@H]2CCN(C[C@H]3CCN(c4ccc5c(c4)C(=O)N(C4CCC(=O)NC4=O)C5=O)C3)C2)CC1 (stereo partly drawn) [Compound 447d, 5-((R)-3-(((S)-3-((4-(4-amino-3-(4-phenoxyphenyl)-1H-pyrazolo[3,4-d]pyrimidin-1-yl)piperidin-1-yl)methyl)pyrrolidin-1-yl)methyl)pyrrolidin-1-yl)-2-(2,6-dioxopiperidin-3-yl)isoindoline-1,3-dione] | 1000 to 10000 | 1000 to 10000 |  |  |
|  |  | > 75 | 10 to 50 |  |  | Nc1ncnc2c1c(-c1ccc(Oc3ccccc3)cc1)nn2C1CCN(C2CCN(C(=O)N3CCC(CCCN4CCN(c5ccc6c(c5)CN(C5CCC(=O)NC5=O)C6=O)CC4)CC3)CC2)CC1 (stereo not drawn) [Compound 264, 3-(5-(4-(3-(1-(4-(4-amino-3-(4-phenoxyphenyl)-1H-pyrazolo[3,4-d]pyrimidin-1-yl)-[1,4′-bipiperidine]-1′-carbonyl)piperidin-4-yl)propyl)piperazin-1-yl)-1-oxoisoindolin-2-yl)piperidine-2,6-dione] | 1000 to 10000 | > 10000 |  |  |
| 10 to 50 | > 90 |  |  |  |  | Nc1ncnc2c1c(-c1ccc(Oc3ccccc3)cc1)nn2C1CCN(CCN2CCN(CCCSc3ccc4c(c3)C(=O)N(C3CCC(=O)NC3=O)C4=O)CC2)CC1 (stereo not drawn) [Compound 467, 5-((3-(4-(2-(4-(4-amino-3-(4-phenoxyphenyl)-1H-pyrazolo[3,4-d]pyrimidin-1-yl)piperidin-1-yl)ethyl)piperazin-1-yl)propyl)thio)-2-(2,6-dioxopiperidin-3-yl)isoindoline-1,3-dione] | 1000 to 10000 | 1000 to 10000 |  |  |
| > 50 |  |  |  |  | B (B >75%) | (7S)-7-(1-((1-(4-(2-(2,6- dioxopiperidin-3-yl)-1,3- dioxoisoindolin-5-yl)piperazine-1- carbonyl)piperidin-1- yl)methyl)piperidin-4-yl)-2-(4- phenoxyphenyl)-4,5,6,7- tetrahydropyrazolo[1,5-a]pyrimidine- 3-carboxamide [Compound 397] |  |  | > 10000 | 1000 to 10000 |
|  |  | > 50 | > 50 |  |  | NC(=O)c1c(-c2ccc(Oc3ccccc3)cc2)nn2c1NCC[C@H]2C1CCN(C2CCN(C(=O)N3CCN(c4ccc5c(c4)CN(C4CCC(=O)NC4=O)C5=O)CC3)CC2)CC1 (stereo partly drawn) [Compound 378, (7S)-7-(1′-(4-(2-(2,6-dioxopiperidin-3-yl)-1-oxoisoindolin-5-yl)piperazine-1-carbonyl)-[1,4′-bipiperidin]-4-yl)-2-(4-phenoxyphenyl)-4,5,6,7-tetrahydropyrazolo[1,5-a]pyrimidine-3-carboxamide] | > 10000 | > 10000 |  |  |
| > 50 | > 50 |  |  |  |  | Nc1ncnc2c1c(-c1ccc(Oc3ccccc3)cc1)nn2C1CCN(CCN2CCN(CCSc3ccc4c(c3)CN(C3CCC(=O)NC3=O)C4=O)CC2)CC1 (stereo not drawn) [Compound 466, 3-(5-((2-(4-(2-(4-(4-amino-3-(4-phenoxyphenyl)-1H-pyrazolo[3,4-d]pyrimidin-1-yl)piperidin-1-yl)ethyl)piperazin-1-yl)ethyl)thio)-1-oxoisoindolin-2-yl)piperidine-2,6-dione] | > 10000 | > 10000 |  |  |
|  |  | > 75 | 10 to 50 |  |  | Nc1ncnc2c1c(-c1ccc(Oc3ccccc3)cc1)nn2C1CCN(C2CCN(C(=O)N3CCN(CCN4CCN(c5ccc6c(c5)C(=O)N(C5CCC(=O)NC5=O)C6=O)CC4)CC3)CC2)CC1 (stereo not drawn) [Compound 245] | 1000 to 10000 | 1000 to 10000 |  |  |
| < 10 | > 90 |  |  |  |  | NC1=NC=NC2C1C(c1ccc(Oc3ccccc3)cc1)=NN2C1CCN(C(=O)N2CC(C3CN(c4ccc5c(c4)CN([C@H]4CCC(=O)NC4=O)C5=O)C3)C2)CC1 (stereo partly drawn) [Compound 495, (3S)-3-(5-(1′-(4-(4-amino-3-(4-phenoxyphenyl)-3a,7a-dihydro-1H-pyrazolo[3,4-d]pyrimidin-1-yl)piperidine-1-carbonyl)-[3,3′-biazetidin]-1-yl)-1-oxoisoindolin-2-yl)piperidine-2,6-dione] | < 1000 | < 1000 |  |  |
| < 10 | > 90 |  |  |  |  | Nc1ncnc2c1c(-c1ccc(Oc3ccccc3)cc1)nn2C1CCN(C(=O)C2CC(N3CCN(c4ccc5c(c4)CN(C4CCC(=O)NC4=O)C5=O)CC3)C2)CC1 (stereo not drawn) [Compound 508, 3-(5-(4-(3-(4-(4-amino-3-(4-phenoxyphenyl)-1H-pyrazolo[3,4-d]pyrimidin-1-yl)piperidine-1-carbonyl)cyclobutyl)piperazin-1-yl)-1-oxoisoindolin-2-yl)piperidine-2,6-dione] | < 1000 | < 1000 |  |  |
|  |  | > 75 | > 50 |  |  | Nc1ncnc2c1c(-c1ccc(Oc3ccccc3)cc1)nn2C1CCN(CC2CCN(CCCN3CCN(c4ccc5c(c4)CN(C4CCC(=O)NC4=O)C5=O)CC3)CC2)CC1 (stereo not drawn) [Compound 208, 3-(5-(4-(3-(4-((4-(4-amino-3-(4-phenoxyphenyl)-1H-pyrazolo[3,4-d]pyrimidin-1-yl)piperidin-1-yl)methyl)piperidin-1-yl)propyl)piperazin-1-yl)-1-oxoisoindolin-2-yl)piperidine-2,6-dione] | > 10000 | > 10000 |  |  |
| 10 to 50 | > 75 |  |  |  |  | Nc1ncnc2c1c(-c1ccc(Oc3ccccc3)cc1)nn2C1CCN(CCN2CCC(Sc3ccc4c(c3)C(=O)N(C3CCC(=O)NC3=O)C4=O)CC2)CC1 (stereo not drawn) [Compound 471, 5-((1-(2-(4-(4-amino-3-(4-phenoxyphenyl)-1H-pyrazolo[3,4-d]pyrimidin-1-yl)piperidin-1-yl)ethyl)piperidin-4-yl)thio)-2-(2,6-dioxopiperidin-3-yl)isoindoline-1,3-dione] | 1000 to 10000 | 1000 to 10000 |  |  |
